Experimental findings from US11103523B2, “Self-assembled brush block copolymer-nanoparticles for drug delivery” (UNIVERSITY OF CONNECTICUT, priority 2013, dated 2021) are described below.

The subject of one data set is A549 cells. Description: Antitumor activity and systemic toxicity in SCID mice bearing subcutaneous A549 tumors. Format: in vivo. On the procedure: The antitumor efficacy of DOX and DOX-NPs was evaluated in SCID mice inoculated subcutaneously in the right flank with 0.1 mL PBS containing 2×10^6 A549 cells. When the tumors grew to approximately 20-30 mm^3 (9 days after tumor implantation), the mice were randomly divided into three groups (n=5-6), and this day was designated as day 0. The mice were injected intravenously twice a week via tail vein with saline (control), free DOX and DOX-NPs (100 μL) at 2.5 mg/kg of equivalent DOX. Antitumor activity was evaluated in terms of tumor volume which was calculated using the following equation: Tumor volume (mm^3)=width^2×length/2. The body weight was measured simultaneously as an indicator of the systemic toxicity.

Data set [1] relates to HeLa cells. Description: Cytotoxicity in HeLa cells, MTT. The conditions noted are these: all DOX concentrations (1-50 μg/mL), 24 h.
Experimental: HeLa cells (7500 cells/well) were seeded on 96-well plates and cultured in 200 μL of DMEM supplemented with 10% FBS, 1% antibiotics, and 1% L-glutamine for 24 h at 37° C. and 5% CO2. After incubation, various concentrations of the blank nanoparticles (0.2-1 mg/mL), DOX-NPs, and free DOX (1-50 μg/mL of DOX equivalents) dissolved in DMEM without supplements were added. After 24 h of incubation with free DOX and DOX-NPs, and 48 h with blank nanoparticles, cytotoxicity was determined using 3-[4,5-dimethylthiazol-2-yl]-3,5-diphenyltetrazolium bromide dye (MTT dye, final concentration of 0.5 mg/mL) uptake at 540 nm on a microplate reader (Tecan group Ltd., Mannedorf, Switzerland).
A short description of data set [2]: Tissue distribution of DOX in A549 tumor-bearing SCID mice. The data set is classed as in vivo. The conditions noted are these: 24 h after i.v. 2.5 mg/kg equivalent DOX. On the procedure: For the tissue distribution study, tumor-bearing severe combined immunodeficient (SCID) between 6 and 8 weeks-old mice were inoculated with 0.1 mL PBS containing 2×10^6 human lung cancer cells (A549) into the right flank. […] Twenty four hours after injection, mice were sacrificed for blood and organ collection including tumor, liver, spleen, kidney, lung, and heart. Tissues were then weighed and homogenized in the lysis buffer (0.1 M Tris-HCl, 2 mM EDTA, 0.1% Triton X-100) using a probe sonicator (Qsonica LLC, CT). The lysate of each tissue was centrifuged at 14,000 rpm for 20 min at 4° C. The blood was centrifuged at 3000 rpm for 10 min at 4° C.

Data set [3] has as its system HeLa cells. The experiment in a line: Intracellular uptake in HeLa cells (confocal microscopy and flow cytometry). The data set is classed as cell-based, human. The conditions noted are these: 25 μg/mL DOX equivalents. On the technique in general: In flow cytometry, cells or beads pass a laser one at a time.
Experimental: To observe the cellular uptake, HeLa cells were seeded at a density of 1.0×10^5 cells/well in an 8-well chamber of a Lab-Tek II chamber slide and pre-incubated for 24 h at 37° C. and 5% CO2. Serum-free DMEM containing free DOX and DOX-NPs at equivalent doses (25 μg/mL) was added to each well, followed by incubation for 2 h at 37° C. The cells were then rinsed with PBS, stained with 10 μM Draq5 and fixed with 4% formaldehyde solution for 10 min. Cover glasses were then placed on glass slides. The cellular uptake of free DOX and DOX-NPs was imaged by confocal laser scanning microscopy (Leica, England) at an excitation wavelength of 488 nm for DOX and 633 nm for Draq5.
To quantify cellular uptake, HeLa cells (5×10^5 cells/well) in 0.5 mL were grown on a 24-well plate at 37° C. in a humidified atmosphere of 5% CO2 for 24 h. Serum-free DMEM containing free DOX and DOX-NPs at equivalent doses (25 μg/mL) was added to the cells which were subsequently incubated for 2 h. The cells were then washed three times with PBS, harvested by trypsinization and transferred into Fluorescence Activated Cell Sorter (FACS) tubes. All samples were analyzed by flow cytometry (FACSCalibur, BD Biosciences, San Jose, Calif.) to determine cellular internalization. Fluorescence measurements of intracellular DOX were performed in the FL2 channel.
The mark [4] stands for this setting: 2.5 mg/kg equivalent DOX, tumor-bearing SCID mice.

As to `COc1cccc2c1C(=O)c1c(O)c3c(c(O)c1C2=O)C[C@@](O)(C(=O)CO)C[C@@H]3O[C@H]1C[C@H](N)[C@H](O)[C@H](C)O1` [free DOX, doxorubicin], the “effect on tumor growth” value in the data set on A549 cells (2.5 mg/kg equivalent DOX i.v. twice a week) is listed as “tumor growth was inhibited”. Also, in the data set with A549 cells (setting [4]), the “decrease in body weight” value came to 28.1±1.2% and the survival result was “death of all mice within 11 days”. Besides, the cytotoxicity comparison result with HeLa cells [1] is on record as “significantly higher cytotoxicity than DOX-NPs”. The “tissue with greatest / lowest concentration of DOX” value in data set [2] is “greatest in the liver and lowest in the tumor”. In the data set with HeLa cells [3] (2 h), the “mean fluorescence intensity (flow cytometry)” value was “greater fluorescence intensity than those treated with DOX-NPs”. Besides, the “intracellular distribution of DOX fluorescence (CLSM)” value with HeLa cells [3] (2 h of incubation) is on record as “strong red color in the nuclei”.
